Holding throughout (test): inhibition of tumour cell growth, NCI panel, 48 h
Test [1] concerns NCI-H522 lung.
For test [2], the system named is OVCAR-3 ovarian.
In test [3] the test system is CCRF-CEM leukemia.
The subject of test [4] is SNB-19 CNS.
Test [5] relates to IGROV1 ovarian.
Test [6] deals with MCF7 breast.
For test [7], the system named is LOX IMVI melanoma.
The subject of test [8] is OVCAR-4 ovarian.
The test system of test [9] is K-562 leukemia.
Test [10] relates to SF-295 CNS.
The subject of test [11] is SW-620 colon.
Test [12] deals with MDA-N.
Test [13] has as its system MDA-MB-231 breast.
Test [14] relates to SR leukemia.
For test [15], the system named is HS 578T breast.

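How tested: cells in 96-well plates exposed to compound for 48 hours at five concentrations. GI50: concentration for 50% inhibition of growth. Definition used: TGI = concentration required for complete inhibition of growth.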 Where a SMILES comes first, the peptide text is derived from it. [ ]: non-standard residue; d: D form. The star is where a group is joined. NMeV = CN[C@H](C(=O)O)C(C)C; X29 = COc1ccc(CN*)c(OC)c1; Octanoyl = CCCCCCCC(=O)*; dNMeA = CN[C@H](C)C(=O)O Bounds are passed on as bounds.

For the molecule `C=CC1(NC(=O)c2ccccc2)CCC(C(C)(C)C)CC1` (configuration not stated), the TGI in test [1] is 94 µM; in test [2], 86.7 µM; in test [3], 72.1 µM; in test [4] it was > 100 µM; in test [5], > 100 µM; in test [6] it was > 83.5 µM. The TGI is 39.3 µM in test [7]; > 100 µM in test [8]; > 100 µM in test [9]; 74 µM in test [10]; > 84.4 µM in [11].

Turning to `COc1c(F)c(F)c(/C(O)=C\c2nc3ccccc3[nH]c2=O)c(F)c1F`, the TGI in [12] is > 10 µM; in test [3] it was > 10 µM; in [5], > 10 µM; in [13] it was > 10 µM; in test [6], > 10 µM; in [7] it was 8.34 µM. The TGI in test [14] is > 10 µM; in [8], 4.94 µM; in test [9], > 10 µM; in [10], > 10 µM; in test [11] it was > 10 µM.

Turning to `c1ccc2c(c1)C1CCCCCC21N1CCOCC1` (configuration not stated), the TGI in test [1], in [2], in test [3], in test [4], in test [5] and in test [7] was > 100 µM throughout. The TGI in [8], in test [9], in test [10] and in test [11] was > 100 µM throughout.

Take `CO/N=C(/C)c1ccc(NC(=O)CSc2nnc(-c3ccncc3)n2-c2ccccc2)cc1`: the GI50 in [3] was > 100 µM; in test [13], 2570 nM; in [14], > 100 µM; in [9] it was > 100 µM; in test [11] it was > 100 µM. Besides, the TGI in [3] is > 100 µM; in [13], 8.79 µM; in test [14], > 100 µM; in test [9], > 100 µM; in test [11], > 100 µM.

For the molecule `COc1cccc(NC(=O)CSc2nnc(-c3ccc(NC(C)=O)cc3)o2)c1`, the TGI in test [1], in [2], in test [3], in [5], in test [7] and in test [14] was > 100 µM in each case. Further, the TGI in [8], in test [9], in [10] and in test [11] was > 100 µM each time.

Consider `CCCCCCCC(=O)N[C@H](C(=O)N[C@H](C(=O)N(C)[C@H](C(=O)N1CCC[C@H]1C(=O)N(C)[C@H](C)C(=O)NCc1ccc(OC)cc1OC)C(C)C)C(C)C)C(C)C` (Octanoyl-VV[NMeV]P[dNMeA]-X29), for which the TGI is 31.4 µM in test [1]; > 100 µM in test [2]; 33.4 µM in test [15]; > 72.9 µM in test [3]; > 100 µM in test [4]; 32.8 µM in test [5]. Also, the TGI was 35.5 µM in test [13]; 42.8 µM in test [6]; 30.8 µM in test [7]; > 65.6 µM in test [14]; > 79.9 µM in test [8]; > 100 µM in test [9]. The values for the TGI in test [10] and in test [11] were > 88.7 µM and > 100 µM, respectively.

In the case of `C/C=C1\CN2CCc3c([nH]c4ccccc34)C2CC1C(=O)OC` (configuration not stated), the TGI in test [1], in [2], in test [3], in test [4], in [5] and in [7] was > 322 µM each time. For the same molecule, the TGI in [14], in [9], in test [10] and in test [11] was > 322 µM throughout.

For `O=C(NC1CCCCC1NC(c1ccccc1)(c1ccccc1)c1ccccc1)C(=O)NC1CCCCC1NC(c1ccccc1)(c1ccccc1)c1ccccc1` (configuration not stated), the TGI was > 100 µM in test [1]; > 100 µM in [2]; 72.5 µM in test [15]; > 100 µM in test [3]; > 100 µM in test [4]; > 100 µM in test [5]. For the same molecule, the TGI in test [13] is > 100 µM; in [6], > 100 µM; in test [7], > 100 µM; in test [14], > 100 µM; in test [8], 76.3 µM; in test [9], > 100 µM. Moreover, the TGI in test [10] and in test [11] was > 100 µM throughout.

In the case of `O=C(CCl)NNC1=Nc2ccc(Cl)cc2SC1`, the TGI turned out to be 1.85 µM in [1]; 3.28 µM in [2]; 3.08 µM in test [3]; 26.4 µM in test [4]; 3.58 µM in test [5]; 7.62 µM in test [6]. For the same molecule, the TGI in test [7] came out at 2.48 µM; in test [8] it was 5.63 µM; in test [9], 5.34 µM; in test [10], 28.4 µM; in test [11] it was 4.22 µM.

Turning to `CC1(C)C=Cc2c(cc(O)c3c(=O)c4cc(Cl)ccc4[nH]c23)O1`, the TGI in [1] is 6.46 µM; in test [12] it was 8.58 µM; in test [2], 3.01 µM; in test [3] it was > 10 µM; in test [4] it was 6.4 µM; in test [5], > 10 µM. For the same molecule, the TGI is > 10 µM in [13]; > 10 µM in test [6]; 8.11 µM in test [7]; > 10 µM in [14]; > 10 µM in test [8]; > 10 µM in test [9]. Moreover, the TGI was 8.25 µM in test [10] and > 10 µM in [11].

Turning to `O=C(O)c1ccc(C2COc3ccc(Cl)cc3C2)cc1` (configuration not stated), the TGI in test [1], in test [2], in [3], in [4], in [5] and in [7] was > 100 µM in each case. Besides, the TGI in test [14], in test [9], in [10] and in test [11] was > 100 µM each time.

As for `COc1cc2c(c(OC)c1)/C(=C/Sc1ccccc1)C(=O)N(C(C)(C)C)C2`, the TGI in test [12] is 73 µM; in [2], 53.2 µM; in [3] it was > 100 µM; in test [5] it was 82.8 µM; in test [13] it was 64.4 µM; in test [6] it was 96.3 µM. Moreover, the TGI is 37.1 µM in [7]; 66.7 µM in [14]; > 100 µM in test [8]; > 100 µM in [9]; 75.5 µM in test [10]; > 100 µM in [11].

The values are drawn from PubChem BioAssay (NCI).
